In article PMC6175903, “Tuneable poration: host defense peptides as sequence probes for antimicrobial mechanisms” (Scientific Reports, 2018):
Where two headings read alike, the source gives them in different places. Marks after values point to notes of the source that are not given here. Bridge positions count the residues as written; N and C are the ends. Square brackets hold non-standard residues; d marks the D form. Ends that are not written are not given here. Peptide text beside a SMILES is read from it. * marks the point of attachment. X1 = CC[C@H](C)CCCCC(=O)*; Dab = NCC[C@H](N)C(=O)O

Tests used:
[1] = system: M. luteus (NCIMB13267); assay: microbe, parasite or virus in culture; type: cell-based; conditions: read-out: Minimum inhibitory concentrations
Experimental: (§1) Minimum inhibitory concentrations (MICs) were determined by broth microdilution on P. aeruginosa (ATCC27853), E. coli (K12), S. aureus (ATCC6538), M. luteus (NCIMB13267), B. subtilis (ATCC6633), S. typhimurium (DA6192) and E. faecalis (OG1X) according to the Clinical and Laboratory Standards Institute and as recommended for antimicrobial peptide testing. […] The absorbance was measured after peptide addition at 600 nm using a Victor 2 plate reader (Perkin-Elmer). MICs were defined as the lowest peptide concentration after 24 h at 37 °C. The mutant strains of S. typhimurium, named using the original nomenclature, were kindly provided by Dan Andersson[55].

[2] = system: S. typhimurium (DA6192); assay: microbe, parasite or virus in culture; type: cell-based; conditions: 24 h at 37 °C, triplicate, read-out: Minimum inhibitory concentrations
Experimental: as §1

[3] = system: S. aureus (ATCC6538); assay: microbe, parasite or virus in culture; type: cell-based; conditions: read-out: Minimum inhibitory concentrations
Experimental: as §1

[4] = system: E. coli (K12); assay: microbe, parasite or virus in culture; type: cell-based; conditions: read-out: Minimum inhibitory concentrations
Experimental: (§2) Minimum inhibitory concentrations (MICs) were determined by broth microdilution on P. aeruginosa (ATCC27853), E. coli (K12), S. aureus (ATCC6538), M. luteus (NCIMB13267), B. subtilis (ATCC6633), S. typhimurium (DA6192) and E. faecalis (OG1X) according to the Clinical and Laboratory Standards Institute and as recommended for antimicrobial peptide testing. Typically, 100 μL of 0.5–1 × 10^6 CFU per ml of each bacterium in Mueller Hinton media broth (Oxoid) were incubated in 96-well polystyrene microtiter plates with 100 μL of serial twofold dilutions of the peptides (from 100 to 0 μM) at 37 °C on a 3D orbital shaker. The absorbance was measured after peptide addition at 600 nm using a Victor 2 plate reader (Perkin-Elmer). MICs were defined as the lowest peptide concentration after 24 h at 37 °C. The mutant strains of S. typhimurium, named using the original nomenclature, were kindly provided by Dan Andersson[55].

[5] = system: P. aeruginosa (ATCC27853); assay: microbe, parasite or virus in culture; type: cell-based; conditions: read-out: Minimum inhibitory concentrations
Experimental: as §2

[6] = system: B. subtilis (ATCC6633); assay: microbe, parasite or virus in culture; type: cell-based; conditions: read-out: Minimum inhibitory concentrations
Experimental: as §2

[7] = system: human erythrocytes; conditions: for LC50, median (50%) lethal concentration: human erythrocytes; for hemolysis: 250 µM
Experimental: Hemolysis was determined by incubating a 10% (vol/vol) suspension of human erythrocytes with peptides. Erythrocytes were rinsed four times in 10 mM phosphate buffer saline (PBS), pH 7.2, by repeated centrifugation and re-suspension (3 min at 3000 × g). Erythrocytes were incubated at room temperature for 1 h in either deionized water (fully haemolysed control), PBS, or with peptide in PBS. After centrifugation at 10,000 × g for 5 min, the supernatant was separated from the pellet, and the absorbance was measured at 550 nm. Absorbance of the suspension treated with deionized water defined complete hemolysis. […] All tests were done in triplicate.

[8] = system: S. typhimurium DA22427 waaY (del bp17FS); assay: microbe, parasite or virus in culture; type: cell-based; conditions: for MIC: Salmonella enterica, TYPHIMURIUM, 24 h, read-out: Minimum inhibitory concentrations; for Minimum inhibitory concentrations: S. typhimurium mutant DA22427 waaY (del bp17FS), broth microdilution, 24 h at 37 °C, triplicate
Experimental: (§3) To explore these variations, the peptides were tested against cross-resistant strains of S. typhimurium, which were experimentally derived from the wild type bacterium subjected to increasing concentrations of pore-forming human HDPs[55]. Three genetic mutations were selected as candidate contributors to resistance and were reconstituted in the wild type genetic background, giving rise to the strains given in Table 2. One strain has the waaY gene mutated. This gene encodes for WaaY kinase that adds a phosphate group to the heptose II residue in the LPS inner core. The deactivation of the gene leads to decreased susceptibility to HDPs[56], as a result of reducing peptide binding to cell surfaces to the levels below those necessary to lyse the bacterium. Two other strains were mutated in pmrB and phoP genes, both of which are involved in masking phosphate groups (diminished charge) and influencing membrane fluidity (restricted motion)[58]. Finally, the fourth strain combined all three mutations (Table 2).
as §2

[9] = system: S. typhimurium DA23899 waaY, pmrB, phoP; assay: microbe, parasite or virus in culture; type: cell-based; conditions: for MIC: Salmonella enterica, TYPHIMURIUM, 24 h, read-out: Minimum inhibitory concentrations; for Minimum inhibitory concentrations: S. typhimurium mutant DA23899 waaY, pmrB, phoP, broth microdilution, 24 h at 37 °C, triplicate
Experimental: as §3, §2

[10] = system: S. typhimurium DA23175 pmrB (R13H); type: cell-based; conditions: S. typhimurium mutant DA23175 pmrB (R13H); broth microdilution, 24 h at 37 °C, triplicate
Experimental: as §3, §2

[11] = system: S. typhimurium DA23307 phoP (D23N); type: cell-based; conditions: S. typhimurium mutant DA23307 phoP (D23N); broth microdilution, 24 h at 37 °C, triplicate
Experimental: as §3, §2

[12] = for comparison, naturally occurring HDPs; cited from earlier work
Experimental: The improved amphipathicity of CecM compared to CecB was evaluated by calculating the mean hydrophobic moment using HeliQuest[70]. The mean hydrophobic moment is a two-dimensional vector sum which provides a direct, quantitative measure of amphipathicity in regular repeats. The mean hydrophobic moment increases from CecB (0.296) to CecM (0.350). For comparison, values for PGLa and magainin, two naturally occurring HDPs, are 0.260 and 0.286, respectively. Percentage of secondary structure elements was calculated using STRIDE[73]. Oligomerisation simulations were performed over 500 ns fo ...

[13] = S. typhimurium DA6192 (wild type, Table 2), broth microdilution
[14] = 10% (vol/vol) suspension in PBS pH 7.2, 1 h at room temperature, absorbance 550 nm, triplicate (Table 1)
[15] = M. luteus, broth microdilution (CLSI), Mueller Hinton broth, 24 h at 37 °C, absorbance 600 nm, triplicate
[16] = S. typhimurium (Table 1), broth microdilution (CLSI), Mueller Hinton broth, absorbance 600 nm
[17] = S. aureus, Ala-d3 ChoM mutants (Table S6), broth microdilution
[18] = E. coli, Ala-d3 ChoM mutants (Table S6), broth microdilution
[19] = P. aeruginosa, Ala-d3 ChoM mutants (Table S6), broth microdilution

Row | Compound | MIC [2, 13] [µM] | LC50, median (50%) lethal concentration [7, 14] | MIC [1, 15] [µM] | MIC [2, 16] [µM] | Minimum inhibitory concentrations [10] [µM] | Minimum inhibitory concentrations [11] [µM] | Minimum inhibitory concentrations [8] [µM] | Minimum inhibitory concentrations [9] [µM] | other results
1 | CO/N=C(\C(=O)N[C@@H]1C(=O)N2C(C(=O)O)=C(CSc3nc(=O)c(=O)[nH]n3C)CS[C@H]12)c1csc(N)n1 [ceftriaxone] | <1 | UD (UD is for undetectable (>1000)) |  |  |  |  |  |  | MIC ([1]; Micrococcus luteus, NCIMB13267, M. luteus, broth microdilution (CLSI), Mueller Hinton broth, 24 h at 37 °C, absorbance 600 nm, triplicate): < 0.5 µM; MIC ([2]; Salmonella enterica, S. typhimurium (Table 1), broth microdilution (CLSI), Mueller Hinton broth, absorbance 600 nm): < 1 µM; MIC ([3]; Staphylococcus aureus, ATCC6538, S. aureus, broth microdilution (CLSI), Mueller Hinton broth, serial twofold dilutions 100 to 0 μM, 24 h at 37 °C, absorbance 600 nm, triplicate): < 3 µM; MIC ([4]; Escherichia coli, E. coli, broth microdilution (CLSI), Mueller Hinton broth, serial twofold dilutions 100 to 0 μM, 24 h at 37 °C, absorbance 600 nm, triplicate): < 6 µM; MIC ([5]; Pseudomonas aeruginosa, ATCC27853, P. aeruginosa, broth microdilution (CLSI), Mueller Hinton broth, serial twofold dilutions 100 to 0 μM, 24 h at 37 °C, absorbance 600 nm, triplicate): > 25 µM; MIC ([6]; Bacillus subtilis, ATCC6633, B. subtilis, broth microdilution (CLSI), Mueller Hinton broth, serial twofold dilutions 100 to 0 μM, 24 h at 37 °C, absorbance 600 nm, triplicate): < 1 µM; MIC [8]: < 1 µM; MIC [9]: < 1 µM
2 | CCCCCCCCCC(=O)N[C@@H](Cc1c[nH]c2ccccc12)C(=O)N[C@H](CC(N)=O)C(=O)N[C@@H](CC(=O)O)C(=O)N[C@@H]1C(=O)NCC(=O)N[C@@H](CCCN)C(=O)N[C@@H](CC(=O)O)C(=O)N[C@H](C)C(=O)N[C@@H](CC(=O)O)C(=O)NCC(=O)N[C@H](CO)C(=O)N[C@@H]([C@H](C)CC(=O)O)C(=O)N[C@@H](CC(=O)c2ccccc2N)C(=O)O[C@@H]1C [daptomycin] |  | >250^c µM | <15 | >60 |  |  |  |  | MIC ([6]; B. subtilis, broth microdilution (CLSI), Mueller Hinton broth, serial twofold dilutions 100 to 0 μM, 24 h at 37 °C, absorbance 600 nm, triplicate): <7 µM; hemolysis ([7]; pH 7.2): 10%
3 | CC[C@H](C)CCCCC(=O)N[C@@H](CCN)C(=O)N[C@H](C(=O)N[C@@H](CCN)C(=O)N[C@H]1CCNC(=O)[C@H]([C@@H](C)O)NC(=O)[C@H](CCN)NC(=O)[C@H](CCN)NC(=O)[C@H](CC(C)C)NC(=O)[C@@H](Cc2ccccc2)NC(=O)[C@H](CCN)NC1=O)[C@@H](C)O [polymyxin B] (X1-[Dab]T[Dab][Dab][Dab][dF]L[Dab][Dab]T; lactam 4-C (inferred); N-terminus assumed) | <0.5 |  |  |  | <0.5 | <2 | <0.5 | <6 | 
4 | CN(C)[C@@H]1C(O)=C(C(N)=O)C(=O)[C@@]2(O)C(O)=C3C(=O)c4c(O)cccc4[C@@](C)(O)[C@H]3C[C@@H]12 [tetracycline] |  | UD (UD is for undetectable (>1000)) |  | <1 |  |  |  |  | MIC ([1]; Micrococcus luteus, NCIMB13267, 24 h): < 0.5 µM; MIC ([2]; Salmonella enterica, S. typhimurium DA6192 (wild type, Table 2), broth microdilution): < 1 µM; MIC ([3]; Staphylococcus aureus, ATCC6538, 24 h): < 0.5 µM; MIC ([4]; Escherichia coli, 24 h): < 1.5 µM; MIC ([5]; Pseudomonas aeruginosa, ATCC27853, 24 h): < 6 µM; MIC ([6]; Bacillus subtilis, ATCC6633, 24 h): < 0.5 µM; MIC [8]: < 1 µM; MIC [9]: < 1 µM
5 | KWKAFKKIEKMIRNIRNKIVK [V4A] |  |  |  |  |  |  |  |  | MIC [3, 17]: > 12 µM; MIC [4, 18]: > 3 µM; MIC [5, 19]: > 3 µM; hemolysis [7]: 1-2%; LC50, median (50%) lethal concentration ([7]; Ala-d3 ChoM mutants (Table S6)): > 250 µM
6 | KWKVFKKAEKMIRNIRNKIVK [I8A] |  |  |  |  |  |  |  |  | MIC [3, 17]: > 25 µM; MIC [4, 18]: > 3 µM; MIC [5, 19]: > 6 µM; LC50, median (50%) lethal concentration ([7]; Ala-d3 ChoM mutants (Table S6)): > 250 µM
7 | KWKVFKKIEKMGRNIRNGIVK-NH2 [ChoC] | >12 | >250^d µM | <1 | >12 | >25 | >25 | >12 | >25 | 
8 | KWKVFKKIEKMGRNIRNGIVKAGPAIAVLGEAKAL-NH2 [CecB, Cecropin B] | <3 | >250^d µM | <1 | <3 | <3 | <3 | <3 | >6 | 
9 | KWKVLKKKIKMLRNRINGLVKAGPALKVKLQALAL-NH2 [CecM] | <1 | >250^d µM | <1 | <1 | <1 | <2 | <1 | <2 | 
10 | PGLa |  |  |  |  |  |  |  |  | mean hydrophobic moment [12]: 0.260
11 | magainin |  |  |  |  |  |  |  |  | mean hydrophobic moment [12]: 0.286
